Measurements taken from ChEMBL document CHEMBL1201862, “PubChem BioAssay data set” (2004).
Activity calls are given as the source filed them.

Tests used:
Caspase-6 = target: T1, Caspase-6 (Homo sapiens, UniProt P55212); assay: inhibition of CASP6 peptide cleavage – biochemical, VEID-R110 fluorescence, cherry-pick, dose response (AID 720632)
T1 sequence (P55212 whole entry): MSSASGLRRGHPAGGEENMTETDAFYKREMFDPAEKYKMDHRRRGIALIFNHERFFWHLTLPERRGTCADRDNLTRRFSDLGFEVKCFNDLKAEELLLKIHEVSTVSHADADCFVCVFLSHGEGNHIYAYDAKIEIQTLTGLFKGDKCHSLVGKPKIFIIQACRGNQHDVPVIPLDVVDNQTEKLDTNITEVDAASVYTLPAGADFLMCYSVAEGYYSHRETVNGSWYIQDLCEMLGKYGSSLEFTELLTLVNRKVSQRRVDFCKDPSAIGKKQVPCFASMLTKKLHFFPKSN

Caspase-7 = Caspase-7 (Homo sapiens, UniProt P55210); assay: caspase-7 enzyme inhibition, selectivity check – biochemical, DEVD-R110 fluorescence, cherry-pick, selectivity assay for caspase-6 inhibitor project, dose response (AID 743295); format: functional
Chain of Caspase-7 (P55210 24-198 limits assumed): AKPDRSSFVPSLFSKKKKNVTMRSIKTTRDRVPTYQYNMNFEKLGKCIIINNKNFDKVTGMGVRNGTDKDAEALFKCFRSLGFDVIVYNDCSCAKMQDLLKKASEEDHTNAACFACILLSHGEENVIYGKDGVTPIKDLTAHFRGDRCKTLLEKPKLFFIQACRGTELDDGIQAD
Chain of Caspase-7 (P55210 207-303 limits assumed): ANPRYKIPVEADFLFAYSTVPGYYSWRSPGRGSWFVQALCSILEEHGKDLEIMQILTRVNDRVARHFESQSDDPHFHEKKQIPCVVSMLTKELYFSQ

Caspase-3 = target: T2, Caspase-3 (Homo sapiens, UniProt P42574); assay: human caspase-3 protease activity blockade – biochemical, fluorescence, cherry-picked samples, selectivity assay for caspase-6 allosteric inhibitor project, dose response (AID 743291)
T2 sequence (P42574 whole entry): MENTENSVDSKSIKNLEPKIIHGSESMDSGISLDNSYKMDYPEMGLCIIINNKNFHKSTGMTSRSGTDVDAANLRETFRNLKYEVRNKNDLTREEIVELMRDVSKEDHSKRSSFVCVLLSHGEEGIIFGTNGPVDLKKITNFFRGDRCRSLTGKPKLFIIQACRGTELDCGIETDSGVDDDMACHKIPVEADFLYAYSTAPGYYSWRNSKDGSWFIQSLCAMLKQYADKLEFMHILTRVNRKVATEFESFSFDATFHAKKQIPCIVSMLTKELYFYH

[1] = target: T3, Sentrin-specific protease 8 (Homo sapiens, UniProt Q96LD8); format: functional
T3 sequence (Q96LD8 whole entry): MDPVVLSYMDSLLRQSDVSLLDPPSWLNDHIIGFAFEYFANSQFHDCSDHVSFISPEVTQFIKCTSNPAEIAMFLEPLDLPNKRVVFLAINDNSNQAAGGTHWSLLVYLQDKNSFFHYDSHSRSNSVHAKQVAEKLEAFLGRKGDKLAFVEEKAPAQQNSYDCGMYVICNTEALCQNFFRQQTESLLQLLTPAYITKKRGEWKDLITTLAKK

[2] = target: T3, Sentrin-specific protease 8; format: functional; remark: listed apart in the source
Caspase-9 = Caspase-9 (Homo sapiens, UniProt P55211); assay: inhibitors of purified CASP9 protease – biochemical, fluorescence, plate reader, cherry-picked samples, selectivity assay for caspase-6 inhibitor project, dose response (AID 743293)
Chain of Caspase-9 (P55211 1-315 limits assumed): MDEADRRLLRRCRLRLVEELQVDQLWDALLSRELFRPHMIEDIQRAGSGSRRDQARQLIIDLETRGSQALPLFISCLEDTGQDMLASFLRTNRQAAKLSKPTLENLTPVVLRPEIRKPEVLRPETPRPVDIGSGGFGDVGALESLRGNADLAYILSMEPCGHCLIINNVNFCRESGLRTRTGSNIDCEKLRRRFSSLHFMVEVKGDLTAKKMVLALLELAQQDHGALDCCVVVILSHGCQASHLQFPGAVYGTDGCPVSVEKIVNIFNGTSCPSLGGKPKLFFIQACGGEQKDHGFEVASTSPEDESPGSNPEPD
Chain of Caspase-9 (P55211 331-416 limits assumed): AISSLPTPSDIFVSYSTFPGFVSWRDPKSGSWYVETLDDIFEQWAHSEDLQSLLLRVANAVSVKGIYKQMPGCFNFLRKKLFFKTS

Caspase-8 = Caspase-8 (Homo sapiens, UniProt Q14790); assay: inhibitors of purified CASP8 protease – biochemical, Z-IETD-R110 fluorescence, cherry-picked samples, selectivity assay for caspase-6 inhibitor project, dose response (AID 743294)
Chain of Caspase-8 (Q14790 217-374 limits assumed): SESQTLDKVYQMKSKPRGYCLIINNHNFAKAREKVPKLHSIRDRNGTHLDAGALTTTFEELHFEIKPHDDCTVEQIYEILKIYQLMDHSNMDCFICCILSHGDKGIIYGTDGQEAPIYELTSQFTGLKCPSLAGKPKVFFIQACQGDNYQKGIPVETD
Chain of Caspase-8 (Q14790 385-479 limits assumed): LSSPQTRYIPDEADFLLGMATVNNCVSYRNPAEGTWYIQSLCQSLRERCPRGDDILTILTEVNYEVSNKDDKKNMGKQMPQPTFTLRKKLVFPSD

[3] = target: T4, Oxysterols receptor LXR-beta (Homo sapiens, UniProt P55055); format: functional, cell-based;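 also: agonist activity at LXR measured by a cell-based luminescence readout across a dose range, run as a counterscreen for daf-12 agonists; HEK293 cells with Gal4-LXR fusion and GAL4-driven luciferase reporter; potency for activation of Gal4-LXR reporter so compounds are agonists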
T4 sequence (P55055 whole entry): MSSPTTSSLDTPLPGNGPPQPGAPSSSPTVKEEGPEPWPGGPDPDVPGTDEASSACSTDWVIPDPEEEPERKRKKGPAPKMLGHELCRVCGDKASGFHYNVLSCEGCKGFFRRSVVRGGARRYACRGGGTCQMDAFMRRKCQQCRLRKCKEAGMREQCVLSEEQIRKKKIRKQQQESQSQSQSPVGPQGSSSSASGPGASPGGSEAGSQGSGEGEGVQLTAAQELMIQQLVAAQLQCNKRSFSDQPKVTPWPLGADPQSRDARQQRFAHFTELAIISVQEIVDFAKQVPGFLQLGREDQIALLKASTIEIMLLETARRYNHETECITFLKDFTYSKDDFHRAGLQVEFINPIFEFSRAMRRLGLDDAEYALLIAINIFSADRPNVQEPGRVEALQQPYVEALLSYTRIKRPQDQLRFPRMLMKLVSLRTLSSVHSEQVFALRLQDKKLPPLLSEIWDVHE

Kallikrein-7 = Kallikrein-7 (Homo sapiens, UniProt P49862); assay: Fluorescence Intensity-based biochemical primary high throughput dose response assay to identify activators of kallikrein-7 (K7) zymogen.
Chain of Kallikrein-7 (P49862 whole entry): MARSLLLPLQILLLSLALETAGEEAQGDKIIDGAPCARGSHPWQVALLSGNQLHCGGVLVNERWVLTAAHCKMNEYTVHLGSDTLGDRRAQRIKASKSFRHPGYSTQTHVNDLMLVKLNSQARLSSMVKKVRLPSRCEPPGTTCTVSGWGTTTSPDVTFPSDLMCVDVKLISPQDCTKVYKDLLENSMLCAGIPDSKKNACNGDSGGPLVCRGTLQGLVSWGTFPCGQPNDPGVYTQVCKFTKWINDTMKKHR

[4] = Luminescence Cell-Based Dose Retest to Confirm Inhibitors of Cancer Stem Cells. [Related pubchem assays (depositor defined):AID2717, AID2721]; format: functional; conditions: Homo sapiens
[5] = target: T5, Disintegrin and metalloproteinase domain-containing protein 17 (Homo sapiens, UniProt P78536); assay: exosite inhibitors of ADAM17, dose response, biochemical (AID 743260)
T5 sequence (P78536 whole entry, the tested form may be a part): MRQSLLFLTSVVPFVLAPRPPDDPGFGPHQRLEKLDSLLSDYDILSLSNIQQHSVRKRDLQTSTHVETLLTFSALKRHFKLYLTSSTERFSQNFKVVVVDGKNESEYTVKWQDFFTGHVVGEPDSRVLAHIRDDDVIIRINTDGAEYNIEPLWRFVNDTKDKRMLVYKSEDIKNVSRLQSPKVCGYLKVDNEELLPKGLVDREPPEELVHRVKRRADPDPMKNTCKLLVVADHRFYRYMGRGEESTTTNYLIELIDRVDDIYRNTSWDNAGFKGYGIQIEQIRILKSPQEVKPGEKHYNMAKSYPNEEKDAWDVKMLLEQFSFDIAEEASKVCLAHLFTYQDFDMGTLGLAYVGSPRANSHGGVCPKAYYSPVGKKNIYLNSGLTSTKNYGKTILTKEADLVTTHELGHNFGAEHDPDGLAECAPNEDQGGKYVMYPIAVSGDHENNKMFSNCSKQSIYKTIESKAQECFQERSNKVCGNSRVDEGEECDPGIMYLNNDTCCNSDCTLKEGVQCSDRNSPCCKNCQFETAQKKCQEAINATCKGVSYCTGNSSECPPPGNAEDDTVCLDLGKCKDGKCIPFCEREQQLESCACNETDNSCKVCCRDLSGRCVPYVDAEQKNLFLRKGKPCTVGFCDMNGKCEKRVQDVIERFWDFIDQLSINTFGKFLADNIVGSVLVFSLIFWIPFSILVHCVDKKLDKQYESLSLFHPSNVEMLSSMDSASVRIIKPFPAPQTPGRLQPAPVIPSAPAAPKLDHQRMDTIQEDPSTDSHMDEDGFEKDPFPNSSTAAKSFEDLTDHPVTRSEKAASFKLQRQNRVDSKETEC

[6] = inhibition of ADAM10 peptide cleavage – biochemical, FRET peptide substrate, recombinant human ADAM10, selectivity assay for ADAM17 exosite inhibitor project, dose response (AID 743259);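 also: ADAM10 enzyme cleaving a FRET peptide substrate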
cells [7] = conditions: A549
cells [8] = assay: cells
cells [9] = conditions: HEK293;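 also: cells exposed to compound for 48 hours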
[10] = viability loss in HepG2 liver cells – cell-based, ATP luminescence, cherry-pick, set 6, cytotoxicity control, dose response (AID 1053125); format: functional
Estrogen receptor beta = Estrogen receptor beta (Homo sapiens, UniProt Q92731);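 also: recombinant ER-beta bound to coactivator SRC1 peptide in presence of estradiol agonist; inhibitors block coactivator peptide binding and lower the FRET signal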
Chain of Estrogen receptor beta (Q92731 whole entry, the tested form may be a part): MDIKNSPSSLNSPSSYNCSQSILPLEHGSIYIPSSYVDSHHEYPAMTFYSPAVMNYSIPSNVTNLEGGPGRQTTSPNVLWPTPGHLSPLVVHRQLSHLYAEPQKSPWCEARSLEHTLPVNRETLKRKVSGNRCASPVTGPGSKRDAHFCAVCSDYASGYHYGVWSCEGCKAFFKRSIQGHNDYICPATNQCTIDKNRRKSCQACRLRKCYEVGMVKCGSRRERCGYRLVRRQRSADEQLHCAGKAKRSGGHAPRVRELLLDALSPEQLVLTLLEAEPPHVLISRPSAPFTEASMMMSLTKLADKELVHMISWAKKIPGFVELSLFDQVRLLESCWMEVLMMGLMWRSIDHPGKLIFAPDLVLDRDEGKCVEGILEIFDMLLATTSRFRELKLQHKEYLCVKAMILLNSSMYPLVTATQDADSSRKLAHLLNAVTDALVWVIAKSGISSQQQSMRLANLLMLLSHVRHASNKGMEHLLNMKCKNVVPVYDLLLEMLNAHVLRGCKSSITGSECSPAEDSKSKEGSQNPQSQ

[11] = blockers of HIV-1 ZM109 envelope-driven cell-cell fusion – HeLa effector, CEM target cells, luciferase, cherry-pick, dose response (AID 652058); format: functional, cell-based;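 also: luciferase signal from HIV-1 Env mediated cell-cell fusion of effector and target cells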
[12] = HIV-1 AD8 envelope cell-cell fusion blockers – cherry-pick, dose response (AID 652062); format: functional, cell-based;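 also: luciferase signal from cell-cell fusion driven by HIV-1 clade B AD8 Env; potency is for inhibitors of fusion seen as a drop in luminescence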
[13] = viability loss in CEM21 cells – cell-based, plate reader, dry powder, cytotoxicity control, dose response (AID 687026); format: functional
[14] = blockers of HIV-1 envelope-mediated cell-cell fusion – cherry-pick, dose response (AID 652057); format: functional, cell-based
Galanin receptor type 3 = Galanin receptor type 3 (Homo sapiens, UniProt O60755); assay: Fluorescence-based cell-based primary high throughput dose response assay to identify antagonists of the Galanin Receptor 3 (GalR3).; format: functional
Chain of Galanin receptor type 3 (O60755 whole entry, the tested form may be a part): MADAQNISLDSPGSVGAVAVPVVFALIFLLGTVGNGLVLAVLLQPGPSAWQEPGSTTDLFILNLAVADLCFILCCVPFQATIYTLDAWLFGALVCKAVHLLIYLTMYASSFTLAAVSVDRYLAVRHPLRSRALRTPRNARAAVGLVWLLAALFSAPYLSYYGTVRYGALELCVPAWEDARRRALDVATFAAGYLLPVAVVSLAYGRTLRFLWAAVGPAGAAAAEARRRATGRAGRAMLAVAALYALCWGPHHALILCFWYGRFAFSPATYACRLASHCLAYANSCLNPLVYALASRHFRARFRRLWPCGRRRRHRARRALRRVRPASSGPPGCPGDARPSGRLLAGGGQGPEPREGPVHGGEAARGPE

[15] = inhibition of Env-driven cell fusion – HIV entry, plate reader, dry powder, dose response (AID 687023); format: functional, cell-based
cells [16] = format: functional, cell-based; conditions: HEK-CNG
[17] = target: T5, Disintegrin and metalloproteinase domain-containing protein 17; assay: inhibition of ADAM17 substrate cleavage – biochemical, quenched FRET substrate, counter-screen for ADAM10 exosite inhibitor project, dose response (AID 743253)
[18] = potency of ADAM10 substrate cleavage blockers – biochemical, QFRET, dose response (AID 743254);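 also: ADAM10 enzyme with the DM2 quenched FRET peptide as substrate; EDANS fluorescence gain as the protease cuts the substrate; inhibitor potency against ADAM10 proteolytic activity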
[19] = viability loss in A549 lung cells – cell-based, 24 h, CellTiter-Glo luminescence, cherry-picks, cytotoxicity control, dose response (AID 1053115); format: functional; conditions: A549, 24 h
Paired box protein Pax-8 = Paired box protein Pax-8 (Homo sapiens, UniProt Q06710); assay: PAX8 transcriptional activity inhibition in RMG-I – RMG-I cells, luciferase, cherry-pick, dose response (AID 687027); format: functional, cell-based;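 also: luciferase reporter driven by Pax8 target thyroperoxidase promoter measured by SteadyGlo luminescence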
Chain of Paired box protein Pax-8 (Q06710 whole entry): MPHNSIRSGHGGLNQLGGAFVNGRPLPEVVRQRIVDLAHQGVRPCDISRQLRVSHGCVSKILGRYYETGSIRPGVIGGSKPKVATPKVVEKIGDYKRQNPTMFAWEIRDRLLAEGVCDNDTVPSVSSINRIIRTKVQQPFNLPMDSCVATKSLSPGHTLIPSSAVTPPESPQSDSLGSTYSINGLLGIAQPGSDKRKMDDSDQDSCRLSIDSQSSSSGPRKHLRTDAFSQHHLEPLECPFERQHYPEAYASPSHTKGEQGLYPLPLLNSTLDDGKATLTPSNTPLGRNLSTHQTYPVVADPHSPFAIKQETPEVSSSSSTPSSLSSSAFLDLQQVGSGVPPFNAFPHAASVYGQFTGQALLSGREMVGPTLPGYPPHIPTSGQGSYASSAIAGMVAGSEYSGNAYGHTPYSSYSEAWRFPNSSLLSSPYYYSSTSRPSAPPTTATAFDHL

[20] = HEK293 Cytotoxicity Assay Measured in Cell-Based System Using Plate Reader - 7071-01_Inhibitor_Dose_CherryPick_Activity_Set2.; format: functional
HEK293 = assay: viability loss in HEK293T cells – cell-based, ATP luminescence, cherry-pick samples, cytotoxicity control, dose response (AID 687005); format: functional; conditions: Homo sapiens;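 also: cells exposed to compound for 48 hours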
[21] = inhibitors of non-replicating M. tuberculosis, dose response, luciferase, dry powder (AID 651619); format: functional; conditions: Mycobacterium tuberculosis
[22] = inhibitors of non-replicating M. tuberculosis, dose response, luciferase, dry powder (AID 651620); format: functional; conditions: Mycobacterium tuberculosis
[23] = MITF Orthogonal Assay: SK-MEL-5 CTG Assay Measured in Cell-Based System Using Plate Reader - 2084-02_Inhibitor_Dose_DryPowder_Activity_Set7.; format: functional
[24] = inhibitors of TRPM1-promoter reporter in SK-MEL-5 – cell-based, luciferase, dry powder, set 8, MITF inhibitor project, dose response (AID 624430); format: functional
[25] = MITF: Counter assay: A375 proliferation Measured in Cell-Based System Using Plate Reader - 2084-03_Inhibitor_Dose_DryPowder_Activity_Set8.; format: functional; conditions: A-375
[26] = viability of BHK-21 cells – cell-based, secondary screen, cytotoxicity control for flavivirus guanylyltransferase probe project (AID 624078); format: functional
[27] = THP-1 cell cytotoxicity, dose response, cytotoxicity control for non-replicating M. tuberculosis project (AID 489025); format: functional
[28] = Vero E6 cell cytotoxicity, dose response, cytotoxicity control for non-replicating M. tuberculosis project, secondary assay (AID 492998); format: functional, VeroE6; conditions: Vero C1008
fMet-Leu-Phe receptor = fMet-Leu-Phe receptor (Homo sapiens, UniProt P21462); assay: formyl peptide receptor binders – dose response (AID 519); format: functional
Chain of fMet-Leu-Phe receptor (P21462 whole entry): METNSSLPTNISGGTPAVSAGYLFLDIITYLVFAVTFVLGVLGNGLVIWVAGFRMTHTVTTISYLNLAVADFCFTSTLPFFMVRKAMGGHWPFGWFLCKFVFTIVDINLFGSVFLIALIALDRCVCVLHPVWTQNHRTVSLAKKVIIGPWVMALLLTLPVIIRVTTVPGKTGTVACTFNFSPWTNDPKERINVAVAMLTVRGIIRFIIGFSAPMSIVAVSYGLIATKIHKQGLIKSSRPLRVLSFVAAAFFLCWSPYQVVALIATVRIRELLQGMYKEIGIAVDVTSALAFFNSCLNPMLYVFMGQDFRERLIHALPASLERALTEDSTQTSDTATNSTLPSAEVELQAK

cells [29] = format: functional
[30] = HepG2 cell cytotoxicity, dose response, cytotoxicity control for non-replicating M. tuberculosis project (AID 489018); format: functional; conditions: Mycobacterium tuberculosis

## O=C1Cc2ccccc2C(=O)N1
Caspase-6
  AC50: 1.22 µM (active)
Caspase-7
  AC50: 1.32 µM (active)
Caspase-3
  AC50: 0.74 µM (active)
[1]
  IC50: 0.702 µM (active)
[2]
  IC50: 0.0408 µM (active)
Caspase-9
  AC50: 1.34 µM (active)
Caspase-8
  AC50: 1.09 µM (active)

## Cc1cc(NC(=O)c2nn3cccnc3c2Cl)no1
[3]
  EC50: > 67.5 µM (inactive)

## COc1ccc(OC)c(/C=C/C(=O)NCCc2nc3ccccc3[nH]2)c1
Kallikrein-7
  EC50: > 69.5 µM (inactive)

## Nc1cc(Cl)ccc1Oc1ccc2ccccc2c1
[4]
  AC50: 5.81 µM (active)
[5]
  IC50: > 69.5 µM (inactive)
[6]
  IC50: 29.6 µM (inactive)

## CN1CCc2c(sc(NC(=O)c3cc(Cl)sc3Cl)c2C(N)=O)C1
Cells [7]
  AC50: > 52 µM (inactive)
Cells [8]
  AC50: 19.9 µM (active)
Cells [9]
  AC50: 33.7 µM (active)
[10]
  AC50: > 52 µM (inactive)

## Cc1oc(-c2ccc(Cl)cc2)nc1CN1CCCC(C(=O)NCc2cccnc2)C1 (stereo unspecified)
Estrogen receptor beta
  IC50: > 50 µM (not active)
[11]
  AC50: < 0.26 µM (active)
[12]
  AC50: 4.75 µM (active)
[13]
  AC50: > 70 µM (inactive)
[14]
  AC50: 4.1 µM (active)
Galanin receptor type 3
  IC50: 2 µM (active)
[15]
  AC50: 3.91 µM (active)
Cells [16]
  EC50: > 29.9 µM (inactive)

## Cc1cccc(C)c1-c1ccc(CN2C(CC(C)C)C(=O)N(Cc3cn(CCO)nn3)CCS2(=O)=O)cc1 (stereo unspecified)
[17]
  IC50: > 69.5 µM (inactive)
[18]
  IC50: 12.3 µM (inactive)

## Cc1ccc(S(=O)(=O)Nc2cccc3c2O[C@@H](CN(C)C(=O)Nc2ccc(C(F)(F)F)cc2)[C@@H](C)CN([C@H](C)CO)C3=O)cc1
[19]
  AC50: 42.6 µM (active)
Paired box protein Pax-8
  AC50: 12.6 µM (active)

## Cc1ccc(S(=O)(=O)Nc2ccc3c(c2)C(=O)N([C@@H](C)CO)C[C@@H](C)[C@@H](CN(C)S(=O)(=O)c2ccc(Cl)cc2)OCCCC[C@H](C)O3)cc1
[20]
  AC50: 24.4 µM (active)
HEK293
  AC50: 24.4 µM (active)

## c1ccc(CSc2nnc(-c3cccnc3)o2)nc1
[21]
  IC90: 16 µM (active)
[22]
  IC90: 16 µM (active)

## CCN1CCN(C2=C(Nc3ccc(F)cc3)C(=O)c3ccccc3C2=O)CC1
[23]
  AC50: 11.9 µM (active)
[24]
  AC50: 3.49 µM (active)
[25]
  AC50: > 70 µM (inactive)

## O=[N+]([O-])c1cccc(S(=O)(=O)Nc2cc(SCc3ccccc3)c(O)c3ccccc23)c1
[26]
  CC50: 14.9 µM (active)

## Cc1nn2c(=O)c3c([nH]c2c1-c1ccc(Cl)cc1)CCC3
[27]
  CC50: 11.2 µM (active)
[28]
  CC50: 14.1 µM (active)
fMet-Leu-Phe receptor
  Ki: 14.1 µM (active)
Cells [29]
  IC50: 10.3 µM (active)
[30]
  CC50: 14.9 µM (active)
